Here are results for five compounds from patent US20070166547A1, “Use of a layer consisting of hydrophobic linear, or two-dimensional polycyclic aromatics as a barrier layer or an encapsulation and electric components constructed with a layer of this type and comprising organic polymers” (priority 2003, published 2007).

Test [1] concerns embyronic fibroblasts of mouse NIH-3T3. Description: Endocellular pHi of fibroblasts by microspectrofluorimetry (FDA, BCECF-AM). In kind it is cell-based. To be noted: for rise of pHi: fibroblasts in an attached spread state; for increase of pHi: 20 minutes. As for the experimental part:
The effect of the compounds according to the invention on the endocellular pH, embyronic fibroblasts of mouse NIH-3T3 supplied by the All-Russian Collection of Cellular Cultures of the Institute of Cytology of the Russian Academy of Sciences St. Petersburg was investigated. The cells were grown in the DMEM (Sigma) medium containing 2.2 g/l of sodium bicarbonate with addition of 80.0 mkg/ml of gentamicin and 10.0% embryonal veal serum at a temperature of 37° C. in an atmosphere containing 5.0% of carbon dioxide. For these experiments use was also made of a medium buffer with 5.0 mM of HEPES and 15.0 mM of sodium bicarbonate without serum or with addition of 5.0% serum. The cells were calculated with the help of a hemocytometer. A share of the dead cells was determined by colouring trypan blue.
The measurements of the endocellular pHi were carried out with the help of colorants FDA (Sigma) and BCECF-AM (Calbiochem) on a microspectrofluorimeter by a standard technique (Koshevoy Yu. V., Akatov V. S., Grobova M. E. Microspectrofluorimeter for measuring endocellular pH (micro pH)”. Devices and equipment for studies in the field of physical-and-chemical biology and biotechnology. Pushchino, 1990. P. 8-14).
The cells at a temperature of 37° C. were colored within 5 minutes with 5.0 mkM PDA that before the colouring was prepared from a 10.0 mM solution in acetone by dilution for 30 minutes in a phosphatic buffer to 0.1 mM or 2.0 mkM 1.0 mM solution BCECF-AM in DMSO.
The two-wave method of determining pHi was used based on the ratio intensities of fluorescence of the cells on two wavelengths (Akatov V. S. et all), “Endocellular pH and substrate dependence of proliferation of fibroblasts of Chinese hamster, Cytology, 1991, 33 (7), p. 86-94). The fluorescence was excited by light at λ=490 nm, the emission was recorded simultaneously with two photomultipliers on wavelengths λ=535 nm and λ=570 nm. The K-ratio of the fluorescence on two wavelengths was determined with a deduction of the background fluorescence of the medium near the investigated cells for 40-60 individual cells, which are then averaged taking into account the measurement error. A thermostatically controlled table was used that allowed measurements to be conducted at a temperature of 37° C. An account was taken for the photodynamic damage of the pigmented cells during-long-time continuous illumination by excited light. The readings were taken from a section of the preparation exposed to light for not more than 5 minutes.
The calibration curves for determining the absolute pHi values by magnitude K were constructed using the Thomas technique (Thomas J. A., Bushbaum R. N., Zimniak A. w Racker E. “Intracellular pH measurements in Ehrlich ascites tumor cells utilizing spectroscopic probe generated in situ”, Biochemistry, 1979, v. 18, p. 2210-2218), for which case the pigmented cells treated for 5-10 minutes with carboxyacidic nigericyn (Calbiochem) at a concentration of 5-10 mkg/ml was placed in a solution with a high content of potassium—130 mM KCl, 1.0 mM MgCl2, 20.0 mM of HEPES) and with pH values from 6.2 to 7.6. The K values were measured in the media with different pH assuming that pHi of the cells equals to the pH of the medium due to the action of nigericyn, which exchanges potassium ions for protons and at a high content of potassium in the medium counterbalances the pH of the medium and cells. Calibration curves were used based on the fluorescence of same medium with addition of 5.0 mkM of fluorescence or BCECF were used to the control the stability of the of the instrument readings.
The correctness of the technique was confirmed in the experiments on measurements of pH values of cells treated with protonofor monencine raising pH of the cells due to replacement of sodium ions by protons, and by determining the dependence of the change of pHi on the change of the pH of the medium. […]

In another test the test system is plasma hemostasis. Briefly: Partial activated thromboplastin time (PATT) after intravenous administration. In kind it is in vivo, rabbit. The note with it: for effect on the PATT (overall): doses 15.0, 30.0, 60.0 mg/kg. The protocol: The investigations were performed on 72 rabbits of the “Chinchilla” breed with a mass of 2.5±0.3 kg, who were administered which solutions of compounds 2, 15, 21, 37 in doses of 15, 30 and 60 mg/kg intravenously. The experiments included the thrombin-test (series No. 7300) and the coagulability-test (series No. 5000) purchased from the scientific-and-production association (SPA) “Renam”, thromboplastin (series No. 240600) and calcium chloride purchased from the SPA “MedioLab”
The static parameters of the blood and plasma coagulation (partial activated thromboplastin time, thrombin time, maximum coagulation activity (test for auto coagulation) were determined using the Behnk Electronic coagulometer (Germany). The operating principle of this instrument is based on the fact that the formed blood clot breaks the contacts of the pulse counter in the flask-pin circuit, said pin permanently oscillating in a vertical plane. The moment of formation of the clot is registered by stopping the stop watch hand.
The measurements were effected at a constant temperature of 37° C. maintained by a temperature control unit.
Compounds 2, 15, 21, 37 according to the invention at a concentration of 15, 30 and 60 mg/kg were introduced to the above experimental animals intravenously, and their blood samples were taken off 15, 30, 60 and 120 minutes after the administration.
The blood plasma samples deprived of thrombocytes obtained as described above in an amount of 0.1 ml were put in a coagulometer flask and heated for 1 minute at 37° C., then 0.1 ml of 0.277% solution of calcium chloride was added and the blood clotting time was registered. The coagulation time T in seconds of the control plasma and plasma obtained after intravenous administration after 15, 30, 60 and 120 minutes were compared.

Setting [2] is: medium with 10.0% blood serum, 0.02 mkg/ml, suspension.
The mark [3] stands for this setting: medium with 10.0% blood serum, 0.2 mkg/ml, suspension.
[4] abbreviates: medium with 10.0% blood serum, 2.0 mkg/ml, suspension.
Where [5] appears, read: medium with 10.0% blood serum, 20.0 mkg/ml, suspension.
Setting [6] is: medium without blood serum, 0.02 mkg/ml.
Setting [7] is: medium without blood serum, 0.2 mkg/ml.
Where [8] appears, read: medium without blood serum, 2.0 mkg/ml.
The mark [9] stands for this setting: medium without blood serum, 20.0 mkg/ml.
The mark [10] stands for this setting: medium without blood serum, 200 mkg/ml.
The mark [11] stands for this setting: medium without blood serum, 1000 mkg/ml.

As to `Nc1ncc2c(=O)[nH][nH]c(=O)c2n1` [Compound 36, 2-amino-pyrimido[4,5-d]-6H-pyridazine-5,8-dione], the “rise of pHi” value in test [1] (2.0 mkg/ml) was determined as 0.10 unit pHi; in test [1] (20.0 mkg/ml) it was 0.07 unit pHi. In addition, the “increase of pHi” value in test [1] (setting [2]) is “do not initiate a change of pH”; in test [1] (setting [3]) it was 0.1 unit pH; in test [1] (setting [4]), 0.12 unit pH; in test [1] (setting [5]) it was “do not initiate a change of pH”; in test [1] (setting [6]) it was “no effect was found”; in test [1] (setting [7]), “no effect was found”. In addition, the “increase of pHi” value was 0.08 unit pHi in test [1] (setting [8]), 0.08 unit pHi in test [1] (setting [9]), “no effect was found” in test [1] (setting [10]) and “no effect was found” in test [1] (setting [11]).
Turning to `Nc1ccnc2c(=O)n([C@@H]3O[C@H](CO)[C@@H](O)[C@H]3O)[nH]c(=O)c12` [Compound 2, 4-amino-7-(β-D-ribofuranosile)pyrido[2,3-d]-6H-pyridazine-5,8-dione], in the test on plasma hemostasis (dose 15.0 mg/kg intravenously), the “T, s after 15 minutes (PATT)” value is given as 37.0 ± 0.1 s; the “T, s after 30 minutes (PATT)” value is on record as 37.0 ± 0.2 s; the “T, s after 60 minutes (PATT)” value is recorded as 36.9 ± 0.1 s; the “T, s after 120 minutes (PATT)” value worked out at 37.0 ± 0.3 s. In the test on plasma hemostasis (dose 30.0 mg/kg intravenously), the “T, s after 15 minutes (PATT)” value worked out at 32.7 ± 0.5 s; the “T, s after 30 minutes (PATT)” value was 32.0 ± 0.1 s; the “T, s after 60 minutes (PATT)” value was determined as 32.2 ± 0.1 s; the “T, s after 120 minutes (PATT)” value came out at 32.1 ± 0.2 s. Moreover, in the test on plasma hemostasis (dose 60.0 mg/kg intravenously), the “T, s after 15 minutes (PATT)” value came out at 32.3 ± 0.2 s; the “T, s after 30 minutes (PATT)” value was found to be 32.4 ± 0.1 s; the “T, s after 60 minutes (PATT)” value stood at 32.3 ± 0.1 s; the “T, s after 120 minutes (PATT)” value is reported as 32.4 ± 0.1 s. Moreover, in the test on plasma hemostasis, the “effect on the PATT (overall)” value was “do not affect the PATT”.
For `Nc1cnc2c(=O)n([C@@H]3O[C@H](CO)[C@@H](O)[C@H]3O)[nH]c(=O)c2n1.[Na]` [Compound 21, sodium salt of 3-amino-7-(β-D-ribofuranosile)pyrazine[2,3-d]-6H-pyridazine-5,8-dione], in the test on plasma hemostasis (dose 15.0 mg/kg intravenously), the “T, s after 15 minutes (PATT)” value is 37.1 ± 0.1 s; the “T, s after 30 minutes (PATT)” value is 37.2 ± 0.1 s; the “T, s after 60 minutes (PATT)” value is recorded as 36.9 ± 0.1 s; the “T, s after 120 minutes (PATT)” value is listed as 37.0 ± 0.2 s. In the test with plasma hemostasis (dose 30.0 mg/kg intravenously), the “T, s after 15 minutes (PATT)” value was 32.8 ± 0.4 s; the “T, s after 30 minutes (PATT)” value is recorded as 32.0 ± 0.1 s; the “T, s after 60 minutes (PATT)” value worked out at 32.2 ± 0.1 s; the “T, s after 120 minutes (PATT)” value amounted to 32.1 ± 0.1 s. Besides, in the test with plasma hemostasis (dose 60.0 mg/kg intravenously), the “T, s after 15 minutes (PATT)” value came out at 32.0 ± 0.4 s; the “T, s after 30 minutes (PATT)” value is reported as 32.1 ± 0.2 s; the “T, s after 60 minutes (PATT)” value worked out at 32.0 ± 0.1 s; the “T, s after 120 minutes (PATT)” value was 32.3 ± 0.2 s. Besides, the “effect on the PATT (overall)” value with plasma hemostasis is “do not affect the PATT”.
With `O=c1[nH][nH]c(=O)c2c(Br)ncnc12.[K]` [Compound 37, potassium salt of 4-bromine-pyrimido[4,5-D]-6H-pyridazine-5,8-dione], in the test with plasma hemostasis (dose 15.0 mg/kg intravenously), the “T, s after 15 minutes (PATT)” value stood at 37.0 ± 0.2 s; the “T, s after 30 minutes (PATT)” value is recorded as 37.1 ± 0.1 s; the “T, s after 60 minutes (PATT)” value amounted to 37.0 ± 0.2 s; the “T, s after 120 minutes (PATT)” value is recorded as 36.9 ± 0.1 s. Besides, in the test with plasma hemostasis (dose 30.0 mg/kg intravenously), the “T, s after 15 minutes (PATT)” value is given as 33.1 ± 0.1 s; the “T, s after 30 minutes (PATT)” value is recorded as 33.3 ± 0.1 s; the “T, s after 60 minutes (PATT)” value is 33.3 ± 0.2 s; the “T, s after 120 minutes (PATT)” value is 33.0 ± 0.4 s. In the test with plasma hemostasis (dose 60.0 mg/kg intravenously), the “T, s after 15 minutes (PATT)” value amounted to 32.5 ± 0.1 s; the “T, s after 30 minutes (PATT)” value is listed as 32.3 ± 0.2 s; the “T, s after 60 minutes (PATT)” value turned out to be 32.4 ± 0.1 s; the “T, s after 120 minutes (PATT)” value is recorded as 32.6 ± 0.3 s. Moreover, in the test on plasma hemostasis, the “effect on the PATT (overall)” value is “do not affect the PATT”.
Regarding `O=c1[nH]n([C@@H]2O[C@H](CO)[C@@H](O)[C@H]2O)c(=O)c2nc(O)cnc12.[Na].[Na]` [Compound 23, disodium salt of 2-hydroxy-7-(β-D-ribofuranosile)pyrazine[2,3-Cl]-6H-pyridazine-5,8-dione], the “rise of pHi” value was 0.10 unit pHi in test [1] (2.0 mkg/ml) and 0.07 unit pHi in test [1] (20.0 mkg/ml). Further, the “increase of pHi” value is recorded as “do not initiate a change of pH” in test [1] (setting [2]); 0.1 unit pH in test [1] (setting [3]); 0.12 unit pH in test [1] (setting [4]); “do not initiate a change of pH” in test [1] (setting [5]); “no effect was found” in test [1] (setting [6]); “no effect was found” in test [1] (setting [7]). Also, the “increase of pHi” value in test [1] (setting [8]) was 0.08 unit pHi; in test [1] (setting [9]), 0.08 unit pHi; in test [1] (setting [10]) it was “no effect was found”; in test [1] (setting [11]), “no effect was found”.
